Laboratory results published in paper PMC5412285, “Characterization of Active Anthocyanin Degradation in the Petals of Rosa chinensis and Brunfelsia calycina Reveals the Effect of Gallated Catechins on Pigment Maintenance” (International Journal of Molecular Sciences, 2017).

Target: T1, Brunfelsia calycina POD (purified 40-kDa anthocyanin degradation-related peroxidase; BcPrx01 suggested)
T1 construct: native POD purified from petals, close to 40 kDa
Assay: guaiacol/H2O2 peroxidase activity assay with purified POD, absorbance at […] nm
Assay type: biochemical, Brunfelsia pauciflora var. calycina (Brunfelsia calycina)

SMILES | IC50
O=C(O[C@@H]1Cc2c(O)cc(O)cc2O[C@H]1c1cc(O)c(O)c(O)c1)c1cc(O)c(O)c(O)c1 [GCG, gallocatechin-3-gallate] | 29.7 µM
O=C(O[C@@H]1Cc2c(O)cc(O)cc2O[C@@H]1c1ccc(O)c(O)c1)c1cc(O)c(O)c(O)c1 [ECG, epicatechin-3-gallate] | 21.5 µM
